Where two headings read alike, the source gives them in different places.
Legend:
[1] = test system: calf liver RNA; experiment: Fluorescence of dyes in PBS with and without free calf liver RNA (spectrofluorometer); format: binding; conditions: for Fluorescence enhancement ratio (Bound/Unbound): RNA-bound dye intensity / free dye intensity; for Fluorescence Intensity Unbound to RNA / Fluorescence Intensity Bound to RNA: Table 1, peak emission wavelength; for Fluorescence Intensity Unbound to RNA: dye 2 μM in PBS, no RNA; for Fluorescence Intensity Bound to RNA: dye 2 μM, calf liver RNA 8 mg/ml in PBS
Procedure: For fluorescence measurements, a stock solution of each compound in DMSO was made (as described in Example 1D). A portion of this stock solution was diluted in PBS to obtain a dye concentration of 2 μm. 1 ml of this dilute solution was placed in a glass cuvette and the fluorescence spectra obtained exciting the dye at its excitation wavelength maximum. Next, 1 ml of a solution of free calf liver RNA (Sigma) dissolved in PBS at a concentration of 8 mg/ml, and a measured volume of the dye stock solution was mixed to obtain a dye concentration of 2 μM in the RNA solution. This dye solution diluted in the RNA solution was placed in a glass cuvette and the fluorescence spectra measured using the same excitation as in the previous measurement.
These intensities were obtained at the peak emission wavelengths of each fluorescence spectra measured as described above. FIG. 1C compares the fluorescence intensities of the RNA-bound and unbound dyes in graphical form.

[2] = test system: Torula yeast RNA; experiment: Fluorescence of dyes in PBS with and without free Torula yeast RNA, excitation 633 nm; format: binding; conditions: Table 4, Group-III dyes; for Fluorescence Intensity Unbound to RNA: conc. 2 μm in PBS, peak of emission spectrum; for Fluorescence Intensity Bound to RNA 1 mg/ml: conc. 2 μm
Procedure: To compare the relative fluorescence intensities of the dyes in bound and unbound states, fluorescence measurements were conducted in a spectrofluorometer by exciting each dye solution at 633 nm under appropriate conditions, recording the fluorescence spectrum of each sample, and measuring the intensities at the peak of these fluorescence spectra. […] A portion of the stock solution for the Dye-1 was diluted in PBS to obtain a dye concentration of […]. […] The fluorescence spectrum of this dye solution in presence of RNA was measured by illuminating the sample at 633 nm.

[3] = test system: Calf thymus DNA; experiment: Fluorescence of dyes in PBS with and without free calf thymus DNA, excitation 633 nm; format: binding; conditions: Table 5; for Fluorescence Intensity Unbound to DNA: Group-III dyes in PBS, peak of emission spectrum; for Fluorescence Intensity Bound to DNA 0.5 mg/ml: Group-III dyes
Procedure: To compare the relative fluorescence intensities of the dyes in bound and unbound states, fluorescence measurements were conducted in a spectrofluorometer by exciting each dye solution at 633 nm under appropriate conditions, recording the fluorescence spectrum of each sample, and measuring the intensities at the peak of these fluorescence spectra. […] Next, the fluorescence spectrum of the dye solution was measured by illuminating the sample at 633 nm.

[4] = test system: reticulocytes
[5] = test system: reticulocytes; experiment: Rapid staining of reticulocytes in whole blood with dye in rapid staining composition, flow cytometry (HeNe 632.8 nm); format: cell-based; conditions: 5 μM dye, analyzed immediately
Procedure: Approximately 11.5 mW of 632.8 nm laser light from the above laser was incident on the beam shaping optics of the flow cytometer. Forward light scatter (FS), side scatter (SS) and one fluorescence (FL) parameter in the orthogonal direction were measured to analyze the red cells. The red cells were gated on a SS vs. FS dotplot. A fixed gate was then used to enumerate […] on a FL vs. FS dotplot. […] The […] reagent is a solution comprising about 20 μg/ml Dodecyl-β-D-maltoside and 0.05% Proclin 300 in PBS at about pH 7.4 and about 290 mOsm. […] The mixture was then aspirated into the XLTM flow cytometer containing the red HeNe laser for analysis. […] The mixture was then aspirated into the XLTM flow cytometer containing the red HeNe laser for analysis. […] The […] reagent is a solution comprising about 20 μg/ml Dodecyl-β-D-maltoside and 0.05% Proclin 300 in PBS at about pH 7.4 and about 290 mOsm. […] The […] reagent is a solution comprising about 20 μg/ml Dodecyl-β-D-maltoside and 0.05% Proclin 300 in PBS at about pH 7.4 and about 290 mOsm. […] The […] reagent is a solution comprising about 20 μg/ml Dodecyl-β-D-maltoside and 0.05% Proclin® 300 in PBS at about pH 7.4 and about 290 mOsm.

SMILES	Fluorescence enhancement ratio (Bound/Unbound) [1]	Fluorescence Intensity Unbound to RNA [1]	Fluorescence Intensity Bound to RNA [1]	Fluorescence Intensity Unbound to RNA [2]	Fluorescence Intensity Bound to RNA 1 mg/ml [2]	Fluorescence Intensity Unbound to DNA [3]	Fluorescence Intensity Bound to DNA 0.5 mg/ml [3]	also measured
Cc1ccc2c(c1)sc(/C=C/C=C1\C=CN(CCO)c3ccccc31)[n+]2CCO [ReticRed6]	225.164	2.75	619.2					
Cc1ccc2c(c1)sc(/C=C/C=C1\C=CN(C(C)C)c3ccccc31)[n+]2CCO [ReticRed5]	292.884	2.24	656.06					
C[n+]1c(/C=C/C=C2\C=CN(Cc3ccccc3B(O)O)c3ccccc32)sc2ccccc21 [Dye-6]				6	410	4	380	
CCNc1cc2[s+]c3cc(NCC)c(C)cc3nc2cc1C.[Cl-] [New Methylene Blue]								retic percentage ([4]; Gen*S method, blood sample of Example 3): 6.7%; retic percentage ([4]; normal donor of Example 4 Run 3, commercially available clinical hematology analyzer): 0.95%
OCC[n+]1c(/C=C/C=C2\C=CN(Cc3ccccc3)c3ccccc32)sc2ccccc21 [Dye-5]				10	420	10	660	
COc1cc(CN2C=C/C(=C\C=C\c3sc4ccccc4[n+]3CCO)c3ccccc32)cc(OC)c1 [Dye-3]				10	328	15	400	percentage of reticulocytes enumerated ([5]; Example 9 Run 7, normal donor): 2.3%; percentage of reticulocytes enumerated ([5]; Example 9 Run 8, abnormal donor (reference 12%)): approximately 14.6%; percentage of reticulocytes enumerated ([5]; Example 9 Run 9, another abnormal donor (reference 27%)): approximately 24%

From patent publication US6551831B2, “Dyes and methods of detection of nucleic acid in immature red blood cells” (Coulter International Corp., priority 2000, dated 2003)
